Reference: patent US20180161310A1, “COMPOUNDS AND METHODS FOR THE TREATMENT OF NEUROLOGICAL DISORDERS” (Teleos Therapeutics, LLC, priority 2016, published 2018)
pEC50: −log10 of the molar value. Read-outs that look alike come from different tables or passages of the source.

What was measured:
[1] = test system: VU0463271-induced phenotype (KCC2 inhibition) in zebrafish larvae; test: animal or person; details: for pEC50: Danio rerio, read-out: in vivo EC50; for peak activity: concentration of peak effect, doses 2.5-320 uM, suppression of KCC2-inhibited phenotype in zebrafish
Procedure: To quantify the ability of the same drugs to reverse (or “rescue”) the phenotype caused by either 2.5 μM VU0463271 or 5 μM VU0240551, a rescue score between 0 (no rescue) and 1 (maximal theoretical rescue) was calculated (FIG. 2C). A rescue score incorporates and quantifies the degree of phenotypic reversal and the level of sedation in each concentration tested (see Materials and Methods below).
A diverse collection of 37,000 uncharacterized small molecules were used in a suppressor screen against either 2.5 μM VU0463271 (27,000 compounds) or 5 μM VU0240551 (10,000 compounds), along with 3,700 control wells treated with DMSO alone and 3,700 control wells treated with the KCC2 inhibitor. Each well of a 96-well plate containing at least about 8 zebrafish larvae was treated with a library compound or DMSO followed by treatment with the KCC2 inhibitor. Behavioral profiles pre- and post-treatment with the KCC2 inhibitor were evaluated using the behavioral assay battery described herein, and a detailed quantitative readout of about 15,000 time points was generated for each well. These behavioral profiles were used to calculate a screening score for each library compound, which incorporates and quantifies the rescue score and sedation index (see Materials and Methods).
In some cases, small molecules that alter the KCC2 inhibition phenotype may reverse the behavioral phenotype back to the normal, but could also elicit a new undesired phenotype, which is different from a normal behavior. To discriminate between these possibilities, vector algebra was used to compare each behavioral profile to the behavioral profile of DMSO-treated larvae and defined a value for the phenotypic distance from DMSO. The screen score of each compound was then plotted against its averaged phenotypic distance from DMSO (FIG. 3A) and MI (FIG. 3B) to filter out compounds that elicit a profile that is very different from the control one and compounds that reduce overall activity, respectively.
The reproducibility of the effects and the active concentration ranges of the 30 hits selected, as described above, were determined. Their rescue efficacies were retested in at least six concentrations and their rescue scores were also recalculated.
TT0023831 and six analogs were tested at a range of doses from 2.5-320 uM in a behavioral assay designed to assess the ability of compounds to suppress the effects of KCC2 inhibition. The graphs of FIG. 11 indicate the degree of suppression of the KCC2-inhibited phenotype, where a score of 1 represents complete restoration of KCC2-treated zebrafish to normal. […] Table 4 summarizes the estimated EC50 values and peak effect values for each compound.
A large number of fertilized zebrafish eggs (up to 20,000 embryos per day) were collected from group matings of wild type Ekkwill/Singapore zebrafish. Embryos were raised in hatching jars at 28° C. on a 14/10 hour light/dark cycle until 3 days post fertilization (dpf), then transferred to an incubator under the same conditions until 7 dpf. Groups of eight larvae (7 dpf) were distributed into the wells of a clear flat bottom square well 96-well plates filled with E3 medium (300 μl). Larvae were then incubated at 25° C. on the bench top for one-hour chemical treatment and subsequent experiments.
A library containing 37,000 uncharacterized small molecules was purchased from Life Chemicals and dissolved in DMSO at a stock concentration of 10 mM.

[2] = test system: PTZ-induced behavior in zebrafish larvae; test: Suppression of PTZ-induced behavior in zebrafish larvae; type: in vivo
Procedure: Differences between behavioral profiles of larval zebrafish treated with KCC2 inhibitors and larval zebrafish treated with PTZ were investigated by evaluating the ability of traditional anti-seizure drugs to reverse their effects. Five drugs in at least six concentrations (by allocating 12 wells per concentration) were tested. These drugs included a benzodiazepine anxiolytic (diazepam), two AEDs that increase GABA levels in the synapse (tiagabine and valproate), a sodium channel blocker (phenytoin) and a synthetic neurosteroid GABAA positive allosteric modulator (PAM, ganaxolone).

[3] = target: T1, Kv7.2/7.3 (KCNQ2/3) (Homo sapiens, UniProt O43525+O43526); test: CHO-Kv7.2/7.3 (KCNQ2/3) 86Rb efflux assay; type: cell-based; details: for pEC50: 10-point CRC 0.001-30 μM, n=2, fit with maximum activation set at 100% of 70 mM KCl control, read-out: EC50; for Emax: read-out: Max Flux %; for EC50: read-out: EC50 (μM, raw); for Conc μM @ Max Flux: concentration at which maximal 86Rb flux was seen; for Fitted Max %: fit, maximum activation set at 100% of 70 mM KCl control stimulus
T1 construct: expressed in transfected cells; host or cells: CHO
Procedure: Compounds were tested at concentrations from 0.001 μM to 30 μM to generate 10-point concentration-response curve (CRC) (n=2). Retigabine and ML213 were included as control activators of Kv7.2/7.3 (KCNQ2/3). Data was normalized to ^86Rb flux elicited by application of extracellular buffer containing 70 mM KCl.
Data were fit with “maximum activation” set at 100% of 70 mM KCl control stimulus.

[4] = 86Rb flux normalized to 70 mM KCl control
[5] = Table 7, second, unlabelled line of values

Structure (SMILES)	pEC50 [1]	peak activity [1] [µM]	pEC50 [3]	Emax [3, 4] [%]	EC50 ([3]; Table 7, first line of values) [µM]	EC50 [3, 5] [µM]	Conc μM @ Max Flux [3] [µM]	Fitted Max % [3] [%]	other results
Cc1ccsc1C(=CCCN1CCC[C@@H](C(=O)O)C1)c1sccc1C [tiagabine, reference compound]	–	–	–	–	–	–	–	–	rescue of the behavioral profile induced by KCC2 inhibition (rescue score 0-1) ([1]; phenotype caused by 2.5 μM VU0463271 or 5 μM VU0240551, at least six concentrations): most effective; prevention of the formation of the PTZ-induced behavior ([2]; pre-treatment, non-sedative concentration 40 μM, data not shown): almost completely prevented
CC(=O)[C@H]1CC[C@H]2[C@@H]3CC[C@H]4C[C@](C)(O)CC[C@]4(C)[C@H]3CC[C@]12C [ganaxolone]	–	–	–	–	–	–	–	–	prevention of the formation of the PTZ-induced behavior ([2]; pre-treatment, non-sedative concentration 0.31 μM, data not shown): almost completely prevented
COc1cc(S(=O)(=O)NCCN2CCOCC2)c(OC)cc1C [TT0048874, 2,5-dimethoxy-4-methyl-N-(2-morpholinoethyl)benzene-sulfonamide]	4.40	160	–	–	–	–	–	–	–
CCCOc1nn(CCC)cc1C(=O)Nc1ccc(C(F)(F)F)c(Cl)c1 [TT0000369, N-(3-chloro-4-(trifluoromethyl)phen-yl)-3-propoxy-1-propyl-1H-pyrazole-4-carboxamide]	–	–	< 4.52	35	1.54	2.63	3	100	–
CCCOc1nn(CCC)cc1C(=O)Nc1cc(F)ccc1F [TT0000351, N-(2,5-difluorophenyl)-3-propoxy-1-propyl-1H-pyrazole-4-carboxamide]	–	–	< 4.52	33	> 30	> 10	10	100	–
CCCOc1nn(CCC)cc1C(=O)Nc1ccc(C(F)(F)F)c(C)c1 [TT0000372, N-(3-methyl-4-(trifluoromethyl)phen-yl)-3-propoxy-1-propyl-1H-pyrazole-4-carboxamide]	–	–	< 4.52	31	9.5	1.6	10	100	–
CCCOc1nn(CCC)cc1C(=O)Nc1ccc(C#N)cc1 [TT0000366, N-(4-cyanophenyl)-3-propoxy-1-propyl-1H-pyrazole-4-carboxamide]	–	–	< 4.52	28	0.0054	> 30	3	100	–
COc1cc(C)c(C(C)C)cc1S(=O)(=O)NCC1CCCO1 (stereo not shown) [TT0048274, 5-isopropyl-2-methoxy-4-methyl-N-((tetrahydrofuran-2-yl)methyl)benzenesulfonamide]	< 3.80	>160	–	–	–	–	–	–	–
COc1cc(C)c(C)cc1S(=O)(=O)NCCN1CCOCC1 [TT0038280, 2-methoxy-4,5-dimethyl-N-(2-morpholinoethyl)benzene-sulfonamide]	4.40	80	–	–	–	–	–	–	–
CN1C(=O)CN=C(c2ccccc2)c2cc(Cl)ccc21 [diazepam]	–	–	–	–	–	–	–	–	prevention of the formation of the PTZ-induced behavior ([2]; zebrafish, in vivo): almost completely prevented
COc1ccc(C(C)C)cc1S(=O)(=O)NCCN1CCOCC1 [TT0048803, 5-isopropyl-2-methoxy-N-(2-morpholinoethyl)benzene-sulfonamide]	> 5.30	20	–	–	–	–	–	–	–
CCOC(=O)Nc1ccc(NCc2ccc(F)cc2)cc1N [Retigabine, reference compound]	–	–	7.00	89	–	–	–	–	–
CCCOc1nn(CCC)cc1C(=O)Nc1ccc(C(F)(F)F)c(F)c1 [TT0000367, N-(3-fluoro-4-(trifluoromethyl)phen-yl)-3-propoxy-1-propyl-1H-pyrazole-4-carboxamide]	–	–	< 4.52	21	> 30	> 30	0.01	100	suppression score dose response compared with other compounds as suppressor of the hyperexcitability phenotype ([1]; zebrafish, FIG. 8 / FIG. 10): outperform the other compounds tested
Cc1cc(C)c(NC(=O)C2CC3CCC2C3)c(C)c1 (stereo not shown) [ML213, reference compound]	–	–	7.70	–	–	–	0.3	98	Max Flux % [3, 4]: 109%; 86Rb flux elicited by reference activators ([3]; EC50 values comparable to literature values): robust concentration-dependent
CCCOc1nn(CCC)cc1C(=O)Nc1ccccc1 [TT0000363, N-phenyl-3-propoxy-1-propyl-1H-pyrazole-4-carboxamide]	–	–	< 4.52	15	> 30	> 30	0.001	100	–
COc1cc(C)c(Br)cc1S(=O)(=O)NCCN1CCOCC1 [TT0027052, 5-bromo-2-methoxy-4-methyl-N-(2-morpholinoethyl)benzene-sulfonamide]	5.30	20	–	–	–	–	–	–	–
CCOc1ccc(Br)cc1S(=O)(=O)NCCN1CCOCC1 [TT0048134, 5-bromo-2-ethoxy-N-(2-morpholinoethyl)benzene-sulfonamide]	4.82	20	–	–	–	–	–	–	–
CCCOc1nn(CCC)cc1C(=O)Nc1ccc(F)c(Cl)c1 [TT0000352, N-(3-chloro-4-fluorophenyl)-3-propoxy-1-propyl-1H-pyrazole-4-carboxamide]	–	–	< 4.52	33	0.48	0.14	3	100	–
CCCOc1nn(CCC)cc1C(=O)Nc1ccc(F)cc1F [TT0000349, N-(2,4-difluorophenyl)-3-propoxy-1-propyl-1H-pyrazole-4-carboxamide]	–	–	< 4.52	33	0.54	> 30	10	100	–
O=C1NC(=O)C(c2ccccc2)(c2ccccc2)N1 [phenytoin]	–	–	–	–	–	–	–	–	prevention of the formation of the PTZ-induced behavior ([2]; pre-treatment, 160 μM, data not shown): almost no effect
